The source of these data is patent US4708966A, “Novel anti-inflammatory agents, pharmaceutical compositions and methods for reducing inflammation” (The Procter & Gamble Company, priority 1986, dated 1987).

For test [1], the system named is adjuvant arthritis (modified Freund's adjuvant). The test can be described thus: Adjuvant Arthritis - Therapeutic. Format: in vivo, Male Sprague-Dawley rats. As to conditions: for Body Weights % Increase / Bone Resorption % Inhibition / Paw Volume % Decrease: 2 x/day, days 20 through 28. As for the experimental part:
(§1) Adjuvant Arthritis Methodology
(§2) Male Sprague-Dawley rats weighing 167-170 gm are allowed to acclimate to the laboratory for at least 3 days. Ten rats are then assigned to the healthy control group and the remaining rats are assigned to the arthritic group. On day 0, the rats in the arthritic group are injected subcutaneously in the middle of their tail with a modified Freund's adjuvant (MFA) at a dosage of 0.05 ml/100 gm body weight. The MFA is made by grinding Mycobacterium butyricum (Mb) and then mixing with mineral oil at a concentration of 10 mg Mb/ml of mineral oil. This is mixed in an Omni mixer for 45 minutes.
Paw volumes and body weights are determined on days -1, 6, 13, 19, 26, and 29. On day 19, paw volume changes from day -1 are determined for the arthritic group. The rats with paw volume changes≥0.50 ml but ≤2.50 ml are randomized by paw volume changes into the treatment groups on day 20. […] On day 29, two representative rats from each treatment group are photographed, paw volumes and body weights are determined, and then the rats are sacrificed with CO2 and x-rays are taken.
(§3) The radiographs are used to grade bone resorption. Bone resorption is graded in 20 areas of the fore and hind paws. The areas for grading on the hind paw are: distal femur end, proximal tibia and tibula, distal end of the tibia and the small bone under the tibia, calcaneous, tarsus, and metatarsus. The areas on the fore paws are: radius, ulna, carpus, and metacarpus. Each area is given a grade of 0 (no resorption) or 1 (resorption) for possible grade of 20 of each animal.

Test [2] deals with carrageenan rat paw edema. The test can be described thus: Carrageenan Rat Paw Edema Test. The format is in vivo, Male Sprague-Dawley rats. As for the experimental part:
Carrageenan Rat Paw Edema Test
Male Sprague-Dawley rats (Charles River Laboratories) are weighed and food fasted overnight. The animals are then divided into four to six groups of six animals each according to body weights (average about 145 g) so that each group has about the same average body weight (within 10 g).
The following morning animals are dosed with the test compound and then placed in individual cages. For oral dosing, the drug is suspended in 0.5% methyl cellulose with 2% Tween 80, and delivered via stomach tube in a 5 ml volume.
Paw volumes (0 time) are determined on both hind paws with a mercury displacement device equipped with a transducer and digitizer. One hour after dosing the test compound, the animals are placed in a plastic restrainer and 50 ul of a 1% (w/w) carrageenan solution in 0.9% saline is injected into the ventral surface of the left rear paw. Four hours after the carrageenan injection, the paw volumes are again determined.
The results are expressed as percent inhibition of the mean paw volume of the test group relative to the control group. Statistical differences are determined by one way analysis of variance. ID35 values are determined by regression analysis.
Background: In the carrageenan paw model, swelling and tenderness develop within hours.

The nature of a further test: oral analgesic activity. Format: in vivo. The conditions noted are these: "peripheral" type, compared to aspirin. The procedure: (§4) In order to determine and assess pharmacological activity, testing of these compounds in animals is carried out using various assays known to those skilled in the art. […] Examples of such known tests include the carrageenan rat edema test, the oxazolone-induced inflamed mouse ear test, and the arachidonic acid-induced inflamed mouse ear test. Anti-pyretic acitivity may be tested using art-known rat models, and analgesic acitivty may be tested in art-known models such as the acetylcholine model in mice, the Randall-Selitto model in rats, and the hot-plate test in mice. Another useful art-known test is the adjuvant arthritis test which is a useful model for assessing anti-inflammatory activity and anti-resorptive activity in a chronic, rather than acute, model.

The test system of test [3] is oxazolone-induced inflamed mouse ear. The test can be described thus: Oxazolone-Induced Inflamed Mouse Ear Test (Ox-IMET). The format is in vivo, Adult male Cox ICR mice. As to conditions: topical, 25 ul of 10% in ethanol, 24 h after challenge, vs control group, read-out: Percent Inhibition. As for the experimental part:
Oxazolone-Induced Inflamed Mouse Ear Test ("Ox-IMET")
Adult male Cox ICR mice, 25-35 g, are sensitized by applying 3% oxazolone in olive oil to the clipped abdomen of each animal using a cotton swab. One week later, the mice are challenged on the inner surface of the left ear with 3% oxazolone in aceotone. At the same time 25 ul of the test compound (10% in ethanol) is applied to the outer surface of the same ear. Twenty four hours after the challenge, the animals are sacrificed by cervical dislocation and both ears are removed. A 5 mm punch biopsy is removed from both ears and is weighed to the nearest 0.1 mg on a Cahn electrobalance. Ten animals are used per group. The study usually consists of 4 to 6 groups, of which one is a control group which is challenged on the left ear, but is not treated with a test compound. The results are expressed as percent inhibition of the swelling response compared to the control group. Statistical tests for significance between groups are made using a one way analysis of variance of the ear weight differences.

A short description of test [4]: oral anti-pyretic activity. Format: in vivo. The procedure: as §4
The next test concerns osteoarthritis. The test can be described thus: tablets in a patient suffering from osteoarthritis. Format: in vivo. As to conditions: tablet, 200 mg Compound 11, twice daily. As for the experimental part: (§5) Pharmaceutical Compositions in Tablet Form
(§6) Tablets are prepared by conventional methods, such as mixing and direct compaction, formulated as follows: […]

Test [5] relates to adjuvant arthritis (modified Freund's adjuvant). The test can be described thus: Adjuvant Arthritis - Immunomodulatory. The format is in vivo, Male Sprague-Dawley rats. The conditions noted are these: 15 mg/kg, 2 x/day, day -1 through day 7. As for the experimental part:
as §1, §2
Paw volumes and body weights are determined on days -1, 6, 13, 19, 26, and 29. On day 19, paw volume changes from day -1 are determined for the arthritic group. The rats with paw volume changes≥0.50 ml but ≤2.50 ml are randomized by paw volume changes into the treatment groups on day 20. On days 20 through 28, the rats are orally dosed twice a day (once a day on weekends). On day 29, two representative rats from each treatment group are photographed, paw volumes and body weights are determined, and then the rats are sacrificed with CO2 and x-rays are taken.
as §3
The same procedures as for the therapeutic, except the rats are randomly assigned to the treatment groups including the healthy control group by body weights on day -2. Paw volumes and body weights are determined on days -1, 6, 13, 20, and 27. The rats are treated from day -1 through day 7. The rats are sacrificed on day 28 and x-rayed. The radiographs are graded as above using a severity scale from 0 (no resorption) to 3 (severe resorption).

Another test concerns rheumatoid arthritis. The test can be described thus: tablets in a patient suffering from rheumatoid arthritis. The format is in vivo. The conditions noted are these: tablet, 200 mg Compound 11, oral, two times daily. As for the experimental part: as §5, §6
For test [6], the system named is rheumatoid arthritis or osteoarthritis. The test can be described thus: capsules in a patient afflicted with rheumatoid arthritis or osteoarthritis. The conditions noted are these: capsule, 200 mg Compound 11, oral, once a day. The format is in vivo. As for the experimental part:
Pharmaceutical Compositions in Capsule Form
Capsules are prepared by conventional methods, comprised as follows: […]

In the case of `C#CCCCC(=O)c1cc(C(C)(C)C)c(O)c(C(C)(C)C)c1` [Compound 11, 4-(5'-hexynoyl)-2,6-di-t-butylphenol], the “Body Weights % Increase” value in [1] (5 mg/kg, oral) is listed as 36%; in test [1] (15 mg/kg, oral) it was 34%; in test [5] it was 30%. Further, the “Bone Resorption % Inhibition” value came out at 37% in test [1] (5 mg/kg, oral); 50% in test [1] (15 mg/kg, oral); 57% in [5] (severity scale 0-3). Besides, the “Paw Volume % Decrease” value in [1] (5 mg/kg, oral) is listed as 75%; in [1] (15 mg/kg, oral), 83%; in test [5] it was 48%. In test [1] (arthritic animal models), the “decrease of bone resorption in arthritic animal models” value is reported as “ability to decrease bone resorption”. In test [1] (oral, dosed therapeutically), the “oral anti-arthritic activity in a rat adjuvant arthritis model” value is “anti-arthritic activity”. In addition, the ED35 in [2] (4 h, oral, by regression analysis, read-out: ID35) is 4.8 mg/kg. Further, the inhibition in vivo at 100 mg/kg in test [2] (po, 100 mg/kg P.O., paw volume 4 h after carrageenan, vs control group, read-out: Percent Inhibiton at 100 mg/kg dose P.O) turned out to be 67.6%. For the same compound, the oral analgesic activity result in the test “oral analgesic activity” is given as “superior to aspirin”. Moreover, the inhibition in vivo at 10 % in test [3] came out at 34.1%. The oral anti-pyretic activity result in test [4] is on record as “oral anti-pyretic activity”. Also, the benefit entry in the test on osteoarthritis is “significant benefit”. Besides, the reduction of inflammation result in the test on rheumatoid arthritis was “significantly reduces the inflammation”. For the same compound, the reduction of symptomology result in [6] is reported as “substantially reduces the symptomology”.
